Reference: ChEMBL document CHEMBL1151880, “Cytotoxicity and structure-activity relationships of four alpha-N-heterocyclic thiosemicarbazone derivatives crystal structure of 2-acetylpyrazine thiosemicarbazone” (Bioorg Med Chem Lett, 2009)

What was measured:
[1] = tested on: K562; assay: Antitumor activity against human K562 cells assessed as induction of cell death after 48 hrs by MTT assay; format: functional, cell-based; conditions: K562, 48 h
[2] = tested on: Bel-7402; assay: Antitumor activity against human Bel7402 cells assessed as induction of cell death after 48 hrs by MTT assay; format: functional, cell-based; conditions: Bel-7402, 48 h

SMILES	IC50 [1] [µM]	IC50 [2] [µM]
C/C(=N\N=C(\N)S)c1cnccn1	47.5	238
C/N=C(\S)N/N=C(\C)c1cnccn1	25.9	462
NC(=S)N/N=C(\c1ccccc1)c1ccccn1	28.2	376
CNC(=S)N/N=C(\c1ccccc1)c1ccccn1	0.002	0.138
